Experimental data taken from publication PMC10489980, “Design of Potent and Salt-Insensitive Antimicrobial Branched Peptides” (Polymers, 2023).
Like-named read-outs stand apart in the source and are kept apart here. Residues, ends and D or L forms follow the SMILES beside them.

What was measured:
Format in all cases: cell-based
[1] = test system: Candida albicans ATCC 37092
Text: (§1) Ten organisms obtained from the American Type Culture Collection (ATCC; Rockville, MD) were used for antimicrobial assays. Four Gram-negative bacteria included Escherichia coli ATCC 25922, Pseudomonas aeruginosa ATCC 27853, Klebsiella oxytoca ATCC 49131, and Proteus vulgaris ATCC 49132. The three Gram-positive bacteria were Staphylococcus aureus 29213, Micrococcus luteus ATCC 49,732, and Enterococcus faecalis ATCC 29212. The three fungi were Candida albicans ATCC 37092, Candida kefyr ATCC 37095, and Candida tropicalis ATCC 37097. The clinical isolates were obtained from Singapore General Hospital (SGH). They are Enterococcus faecium, Staphylococcus aureus, Klebsiella pneumoniae, Acinetobacter baumannii, Pseudomonas aeruginosa, and Enterobacter species. The strains were incubated in trypticase soy broth (TSB), which was prepared in double distilled water and autoclaved for sterilization. TSB was purchased from Becton-Dickinson (Cockeysville, MD, USA).
(§2) Antimicrobial Assays. A sensitive and reproducible two-stage radial diffusion antimicrobial assay of Lehrer et al. was employed. A 1–4 × 10^6 colony-forming unit/mL of the test organism was mixed with 10 mL of molten underlay gel solution and poured into Petri dishes to form a uniform layer. The gel solution consisted of 10 mM sodium phosphate buffer, 0.03% TSB, and 0.02% Tween-20, with the addition of 100 mM NaCl in the case of high-salt conditions. Upon gel solidification, gel wells were made by a 3-mm diameter template in an evenly spaced array. A 5 µL aliquot of a serial half-log dilution of test peptides at seven concentrations was added to each well after removal of gel plugs. The dishes were incubated at 37 °C for 3 h to allow peptide diffusion into the underlay gels. Gels were overlaid with 10 mL of 1% agarose in 6% TSB (wt/vol). After additional incubation at 37 °C for 16–24 h, the diameter of the clear zone surrounding the wells (colony-free) was measured under a microscope. Antimicrobial activities were expressed in units (0.1 mm = 1 unit), and the MICs (in µM) were determined from the x-intercepts of the dose-response curves. Experiments were performed in triplicates.

Candida kefyr ATCC 37095 = test system: Candida kefyr ATCC 37095
Text: as §1, §2

[2] = test system: Candida tropicalis ATCC 37097
Text: as §1, §2

[3] = test system: Enterococcus faecalis ATCC 29212
Text: as §1, §2

[4] = test system: Escherichia coli ATCC 25922
Text: as §1, §2

[5] = test system: Klebsiella oxytoca ATCC 49131
Text: as §1, §2

[6] = test system: Micrococcus luteus ATCC 49,732
Text: as §1, §2

[7] = test system: Proteus vulgaris ATCC 49132
Text: as §1, §2

[8] = test system: Pseudomonas aeruginosa ATCC 27853
Text: as §1, §2

[9] = test system: Staphylococcus aureus 29213
Text: as §1, §2

Compound	MIC, C. albicans, H-Salt ([1]; ATCC 37092, 3 h) [µM]	MIC, C. albicans, L-Salt ([1]; ATCC 37092, 3 h) [µM]	MIC, C. kefyr, H-Salt (Candida kefyr ATCC 37095; ATCC 37095, 3 h) [µM]	MIC, C. kefyr, L-Salt (Candida kefyr ATCC 37095; ATCC 37095, 3 h) [µM]	MIC, C. tropicalis, H-Salt ([2]; ATCC 37097, 3 h) [µM]	MIC, C. tropicalis, L-Salt ([2]; ATCC 37097, 3 h) [µM]	MIC, E. faecalis, H-Salt ([3]; ATCC 29212, 3 h) [µM]	MIC, E. faecalis, L-Salt ([3]; ATCC 29212, 3 h) [µM]	MIC, E. coli, H-Salt ([4]; ATCC 25922, 3 h) [µM]	MIC, E. coli, L-Salt ([4]; ATCC 25922, 3 h) [µM]	MIC, K. oxytoca, H-Salt ([5]; ATCC 49131, 3 h) [µM]	MIC, K. oxytoca, L-Salt ([5]; ATCC 49131, 3 h) [µM]	MIC, M. luteus, H-Salt ([6]; ATCC 49, 3 h) [µM]	MIC, M. luteus, L-Salt ([6]; ATCC 49, 3 h) [µM]	MIC, P. vulgaris, H-Salt ([7]; ATCC 49132, 3 h) [µM]	MIC, P. vulgaris, L-Salt ([7]; ATCC 49132, 3 h) [µM]	MIC, P. aeruginosa, H-Salt ([8]; ATCC 27853, 3 h) [µM]	MIC, P. aeruginosa, L-Salt ([8]; ATCC 27853, 3 h) [µM]	MIC, S. aureus, H-Salt ([9]; 29213, 3 h) [µM]	MIC, S. aureus, L-Salt ([9]; 29213, 3 h) [µM]	other results
CC(=O)NCCC[C@H](NC(=O)[C@H](CCCNC(=N)N)NC(=O)[C@H](Cc1ccc(O)cc1)NC(=O)[C@H](CC(C)C)NC(=O)[C@@H](N)CCCNC(=N)N)C(=O)NCCC[C@H](NC(=O)[C@H](CCCNC(=N)N)NC(=O)[C@H](Cc1ccc(O)cc1)NC(=O)[C@H](CC(C)C)NC(=O)[C@@H](N)CCCNC(=N)N)C(=O)NCCC[C@H](NC(=O)[C@H](CCCNC(=N)N)NC(=O)[C@H](Cc1ccc(O)cc1)NC(=O)[C@H](CC(C)C)NC(=O)[C@@H](N)CCCNC(=N)N)C(N)=O [iO3R] (HELM PEPTIDE1{R.L.Y.R.[Orn]}|PEPTIDE2{[ac]}|PEPTIDE3{R.L.Y.R.[Orn]}|PEPTIDE4{R.L.Y.R.[Orn].[am]}$PEPTIDE1,PEPTIDE2,5:R3-1:R2|PEPTIDE1,PEPTIDE3,5:R2-5:R3|PEPTIDE3,PEPTIDE4,5:R2-5:R3$$$V2.0)	12.4	4.8	2.0	1.3	2.3	2.8	> 500	51.6	12.8	1.3	5.4	2.2	8.8	3.1	27.6	8.3	3.2	5.8	56.2	17.2	–
CC(C)C[C@H](NC(=O)[C@@H](N)CCCNC(=N)N)C(=O)N[C@@H](Cc1ccc(O)cc1)C(=O)N[C@@H](CCCNC(=N)N)C(=O)NCCCC[C@H](NC(=O)[C@H](CCCCNC(=O)[C@H](CCCNC(=N)N)NC(=O)[C@H](Cc1ccc(O)cc1)NC(=O)[C@H](CC(C)C)NC(=O)[C@@H](N)CCCNC(=N)N)NC(=O)[C@H](CCCCNC(=O)[C@H](CCCNC(=N)N)NC(=O)[C@H](Cc1ccc(O)cc1)NC(=O)[C@H](CC(C)C)NC(=O)[C@@H](N)CCCNC(=N)N)NC(=O)[C@H](CCCCNC(=O)[C@H](CCCNC(=N)N)NC(=O)[C@H](Cc1ccc(O)cc1)NC(=O)[C@H](CC(C)C)NC(=O)[C@@H](N)CCCNC(=N)N)NC(=O)OCC1c2ccccc2-c2ccccc21)C(N)=O [K4R]	–	–	–	–	–	–	–	–	–	–	–	–	–	–	–	–	–	–	–	–	MIC, C. albicans, H-Salt ([1]; ATCC 37092, radial diffusion assay, high-salt (100 mM NaCl), triplicates): 0.8 µM; MIC, C. albicans, L-Salt ([1]; ATCC 37092, radial diffusion assay, low-salt (without NaCl), triplicates): 0.7 µM; MIC, C. kefyr, H-Salt (Candida kefyr ATCC 37095; ATCC 37095, radial diffusion assay, high-salt (100 mM NaCl), triplicates): 0.9 µM; MIC, C. kefyr, L-Salt (Candida kefyr ATCC 37095; ATCC 37095, radial diffusion assay, low-salt (without NaCl), triplicates): 0.9 µM; MIC, C. tropicalis, H-Salt ([2]; ATCC 37097, radial diffusion assay, high-salt (100 mM NaCl), triplicates): 1.2 µM; MIC, C. tropicalis, L-Salt ([2]; ATCC 37097, radial diffusion assay, low-salt (without NaCl), triplicates): 1.5 µM; MIC, E. faecalis, H-Salt ([3]; ATCC 29212, radial diffusion assay, high-salt (100 mM NaCl), triplicates): 1.5 µM; MIC, E. faecalis, L-Salt ([3]; ATCC 29212, radial diffusion assay, low-salt (without NaCl), triplicates): 0.5 µM; MIC, E. coli, H-Salt ([4]; ATCC 25922, two-stage radial diffusion assay, high-salt (underlay gel 10 mM sodium phosphate, 0.03% TSB, 0.02% Tween-20, with 100 mM NaCl), 37 °C, x-intercept of dose-response curve, triplicates): 0.7 µM; MIC, E. coli, L-Salt ([4]; ATCC 25922, two-stage radial diffusion assay, low-salt (underlay gel 10 mM sodium phosphate, 0.03% TSB, 0.02% Tween-20, without NaCl), 37 °C, x-intercept of dose-response curve, triplicates): 0.7 µM; MIC, K. oxytoca, H-Salt ([5]; ATCC 49131, radial diffusion assay, high-salt (100 mM NaCl), triplicates): 1.2 µM; MIC, K. oxytoca, L-Salt ([5]; ATCC 49131, radial diffusion assay, low-salt (without NaCl), triplicates): 1.3 µM; MIC, M. luteus, H-Salt ([6]; ATCC 49,732, radial diffusion assay, high-salt (100 mM NaCl), triplicates): 1.0 µM; MIC, M. luteus, L-Salt ([6]; ATCC 49,732, radial diffusion assay, low-salt (without NaCl), triplicates): 0.6 µM; MIC, P. vulgaris, H-Salt ([7]; ATCC 49132, radial diffusion assay, high-salt (100 mM NaCl), triplicates): 1.0 µM; MIC, P. vulgaris, L-Salt ([7]; ATCC 49132, radial diffusion assay, low-salt (without NaCl), triplicates): 1.1 µM; MIC, P. aeruginosa, H-Salt ([8]; ATCC 27853, radial diffusion assay, high-salt (100 mM NaCl), triplicates): 0.9 µM; MIC, P. aeruginosa, L-Salt ([8]; ATCC 27853, radial diffusion assay, low-salt (without NaCl), triplicates): 0.8 µM; MIC, S. aureus, H-Salt ([9]; strain 29213, radial diffusion assay, high-salt (100 mM NaCl), triplicates): 0.9 µM; MIC, S. aureus, L-Salt ([9]; strain 29213, radial diffusion assay, low-salt (without NaCl), triplicates): 0.8 µM
CC(=O)N[C@@H](CCCNC(=O)[C@H](CCCNC(=N)N)NC(=O)[C@H](Cc1ccc(O)cc1)NC(=O)[C@H](CC(C)C)NC(=O)[C@@H](N)CCCNC(=N)N)C(=O)N[C@@H](CCCNC(=O)[C@H](CCCNC(=N)N)NC(=O)[C@H](Cc1ccc(O)cc1)NC(=O)[C@H](CC(C)C)NC(=O)[C@@H](N)CCCNC(=N)N)C(=O)N[C@@H](CCCNC(=O)[C@H](CCCNC(=N)N)NC(=O)[C@H](Cc1ccc(O)cc1)NC(=O)[C@H](CC(C)C)NC(=O)[C@@H](N)CCCNC(=N)N)C(N)=O [O3R]	18.2	6.4	1.4	0.8	1.9	2.1	> 500	49.8	8.7	0.9	1.7	1.7	16.4	5.4	24.6	6.9	8.9	1.9	93.4	9.6	–
CC(C)C[C@H](NC(=O)[C@@H](N)CCCNC(=N)N)C(=O)N[C@@H](Cc1ccc(O)cc1)C(=O)N[C@@H](CCCNC(=N)N)C(=O)NCCC[C@H](NC(=O)[C@H](CCCNC(=N)N)NC(=O)[C@H](Cc1ccc(O)cc1)NC(=O)[C@H](CC(C)C)NC(=O)[C@@H](N)CCCNC(=N)N)C(=O)NCCC[C@H](NC(=O)[C@H](CCCNC(=N)N)NC(=O)[C@H](Cc1ccc(O)cc1)NC(=O)[C@H](CC(C)C)NC(=O)[C@@H](N)CCCNC(=N)N)C(=O)NCCC[C@H](NC(=O)[C@H](CCCNC(=N)N)NC(=O)[C@H](Cc1ccc(O)cc1)NC(=O)[C@H](CC(C)C)NC(=O)[C@@H](N)CCCNC(=N)N)C(=O)NCCC[C@H](NC(=O)[C@H](CCCNC(=N)N)NC(=O)[C@H](Cc1ccc(O)cc1)NC(=O)[C@H](CC(C)C)NC(=O)[C@@H](N)CCCNC(=N)N)C(N)=O [iO5R] (HELM PEPTIDE1{R.L.Y.R.[Orn]}|PEPTIDE2{R.L.Y.R}|PEPTIDE3{R.L.Y.R.[Orn]}|PEPTIDE4{R.L.Y.R.[Orn]}|PEPTIDE5{R.L.Y.R.[Orn].[am]}$PEPTIDE1,PEPTIDE2,5:R3-4:R2|PEPTIDE1,PEPTIDE3,5:R2-5:R3|PEPTIDE3,PEPTIDE4,5:R2-5:R3|PEPTIDE4,PEPTIDE5,5:R2-5:R3$$$V2.0; N-terminus assumed)	0.8	0.6	0.5	0.6	0.6	0.9	> 500	2.2	9.2	0.7	6.2	1.2	2.0	0.8	7.8	8.2	3.8	1.0	6.4	1.9	–
